Laboratory results taken from patent US4150137A, “Pyridylalkyl esters of 2-(p-isobutylphenyl)acetic acid and propionic acids and use” (Hisamitsu Pharmaceutical Co. Inc., priority 1975, dated 1979).

Columns and labels:
male mice of dd-strain = format: in vivo; settings: death of animals 72 hours following administration
Protocol: Each test compound suspended in 0.5% tragacanth-saline was administered intraperitoneally or orally to male mice of dd-strain(body weight 16-24 g). The lethal dose was estimated from the death of animals 72 hours following administration.

[1] = system: carrageenin-induced leakage of the pigment, dorsal skin; assay: Anti-inflammatory activity for topical route (carrageenin, leakage of pigment in dorsal skin); format: in vivo, rat (Wistar-strain); settings: 1% in polyethylene glycol 300, percent inhibition divided by that of ibuprofen
Protocol: The dorsal skin of male rats of Wistar-strain(body weight: about 100 g) were depilated. Carrageenin suspension was injected intra-dermally at a dose of 250 γ/0.05 ml/site. […] Immediately after injection, the filter paper containing 125.2±18.0 mg of the polyethylene glycol was applied on the injected site. After 3 hours, 1% pontamine sky blue solution was injected intravenously at a dose of 0.5 ml/kg. After further 3 hours, the animals were sacrificed and their dorsal skin were removed to measure the area of leakage of the pigment. The percent inhibition was determined with respect to the results for the control animals.

writhing syndrome = assay: Analgetic activity (acetic acid writhing syndrome); format: in vivo, mouse (dd-strain); settings: Mus musculus, 1 h; oral, mice, 0.6% acetic acid i.p. one hour later; Litchfield-Wilcoxon; read-out: analgetic effect ED50 (95% C.L.)
Protocol: Each test compound suspended in 0.5% tragacanth-saline was orally administered to dd-strain mice(body weight: 18-20 g). After one hour 0.6% acetic acid solution was injected intraperitoneally in a volume of 0.1 ml/10 g.

carrageenin edema = assay: Anti-inflammatory activity for oral route (carrageenin edema, hind paw); format: in vivo, rat (Wistar-strain); settings: percent inhibition divided by that of ibuprofen, carrageenin edema after 3 hours; for anti-inflammatory effect, oral, 10 mg/kg (relative inhibition, ibuprofen = 1.0): 10 mg/kg oral; for anti-inflammatory effect, oral, 50 mg/kg (relative inhibition, ibuprofen = 1.0): 50 mg/kg oral
Protocol: After 30 minutes 0.5-1.0% carrageenin suspended in the water for injection was injected subcutaneously to a hind paw. After 3 hours the carrageenin edema was measured by volume, and the percent inhibition was determined with respect to the results for the control animals.

Row | SMILES | acute toxicity, oral (lethal dose) (male mice of dd-strain) [mg/kg] | anti-inflammatory effect, topical (relative inhibition, ibuprofen = 1.0) [1] | ED50 (writhing syndrome) [mg/kg] | anti-inflammatory effect, oral, 10 mg/kg (relative inhibition, ibuprofen = 1.0) (carrageenin edema) | anti-inflammatory effect, oral, 50 mg/kg (relative inhibition, ibuprofen = 1.0) (carrageenin edema)
1 | COCCOC(=O)C(C)c1ccc(CC(C)C)cc1 (stereo not drawn) [Compound 14] | 1000 to 2000 | 1.2 | 406 | 0.4 | 1.2
2 | CCOCCOC(=O)C(C)c1ccc(CC(C)C)cc1 (stereo not drawn) [Compound 15] | > 2000 | 1.2 | 156 | 0.7 | 0.9
3 | CC(C)Cc1ccc(C(C)C(=O)OCCOCCO)cc1 (stereo not drawn) [Compound 16] | > 2000 | 2.3 | 151 |  | 0.9
4 | CC(=O)OCCOC(=O)C(C)c1ccc(CC(C)C)cc1 (stereo not drawn) [Compound 18] | > 2000 | 2.2 | 308 | 0.7 | 1.1
5 | CCOC(=O)COC(=O)C(C)c1ccc(CC(C)C)cc1 (stereo not drawn) [Compound 19] | > 2000 | 1.9 | 180 | 0.5 | 0.7
